The target in the assay is T1, human EP4 receptors (Homo sapiens, UniProt P35408).
T1 construct: expressed in transfected cells
The assay can be described thus: cAMP assay in human EP4 transfectant. It is filed as cell-based. The note with it: HEK293 cells expressing human EP4 receptors; 1 nM PGE2, 0.2 mM IBMX, 37° C. for 10 min. Here is the method:
cAMP Assay in Human EP4 Transfectant HEK293 cells expressing human EP4 receptors (hEP4 cells) are maintained in DMEM containing 10% FBS and 500 μg/ml geneticin. For harvesting hEP4 cells, culture medium is aspirated and cells in 75 cm^2 flask are washed with 10 ml of phosphate buffered saline (PBS). Another 10 ml of PBS is added to the cells and incubated for 20 min at room temperature. Human EP4 cells are harvested by pipetting and centrifuged at 300×g for 4 min. Cells are resuspended in DMEM without neutral red at a density of 7×10^5 cells/ml containing 0.2 mM IBMX (PDE inhibitor), 1 nM PGE2 and test compounds in PCR-tubes, and incubated at 37° C. for 10 min. The reaction is stopped by heating at 100° C. for 10 min with thermal cycler. Concentration of cAMP in reaction mixtures is determined with SPA cAMP Kit (Amersham) or cAMP Screen™ (Applied Biosystems) according to the manufacture's instruction. Reference: Eur. J. Pharmacol. 340 (1997) 227-241 cAMP assay in human EP4 transfectant were conducted using the method described above. IC50: the concentration of the individual compound required to reduce the amount of ligand by 50%.

T1 sequence (P35408 whole entry): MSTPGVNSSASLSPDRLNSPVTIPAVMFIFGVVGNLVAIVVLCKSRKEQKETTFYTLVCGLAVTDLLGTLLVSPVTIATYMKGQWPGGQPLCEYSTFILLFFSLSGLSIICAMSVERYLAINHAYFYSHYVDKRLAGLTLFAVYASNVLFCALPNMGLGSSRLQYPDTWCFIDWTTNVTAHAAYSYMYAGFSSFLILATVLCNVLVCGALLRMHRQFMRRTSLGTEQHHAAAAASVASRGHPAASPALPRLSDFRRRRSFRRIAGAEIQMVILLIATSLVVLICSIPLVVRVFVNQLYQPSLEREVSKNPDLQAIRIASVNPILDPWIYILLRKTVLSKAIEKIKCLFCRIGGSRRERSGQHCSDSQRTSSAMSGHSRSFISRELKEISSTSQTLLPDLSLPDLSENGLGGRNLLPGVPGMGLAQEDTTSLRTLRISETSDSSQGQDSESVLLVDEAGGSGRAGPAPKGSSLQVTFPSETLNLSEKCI

Regarding `O=C(O)c1ccc(CNC(=O)c2cc(Cl)ccc2OCCc2ccccc2)cc1` [EXAMPLE 1, 4-({[5-CHLORO-2-(2-PHENYLETHOXY-)BENZOYL]AMINO}METHYL)BENZOIC ACID], half-maximal inhibition (IC50) was put at 149 nM.

Take `O=C(O)c1ccc(CNC(=O)c2cc(Cl)ccc2OCCc2ccccc2Cl)cc1` [EXAMPLE 2, 4-[({5-CHLORO-2-[2-(2-CHLOROPHENYL)ETHOXY]BENZOYL}AMINO)METHYL]BENZOIC ACID]: half-maximal inhibition (IC50) was put at 108 nM.

In the case of `O=C(O)c1ccc(CNC(=O)c2cc(Cl)ccc2OCCc2ccc(F)cc2)cc1` [EXAMPLE 3, 4-[({5-CHLORO-2-[2-(4-FLUOROPHENYL)ETHOXY]BENZOYL}AMINO)METHYL]BENZOIC ACID], the midpoint of inhibition, the IC50, lay at 126 nM.

The compound `O=C(O)c1ccc(CNC(=O)c2cc(Cl)ccc2OCCc2ccc(Cl)cc2)cc1` [EXAMPLE 4, 4-[({5-CHLORO-2-[2-(4-CHLOROPHENYL)ETHOXY]BENZOYL}AMINO)METHYL]BENZOIC ACID] registered an IC50 of 107 nM.

`O=C(O)c1ccc(CNC(=O)c2cc(Cl)ccc2OCc2ccc(Cl)cc2)cc1` [EXAMPLE 6, 4-[({5-CHLORO-2-[(4-CHLOROBENZYL)OXY]BENZOYL)AMINO)METHYL]BENZOIC ACID] had an IC50 of 441 nM.

`Cc1ccccc1CCOc1ccc(Cl)cc1C(=O)NCc1ccc(C(=O)O)cc1` [EXAMPLE 7, 4-[({5-CHLORO-2-[2-(2-METHYLPHENYL)ETHOXY]BENZOYL}AMINO)METHYL]BENZOIC ACID] showed an IC50 of 62 nM.

In turn, `C[C@H](NC(=O)c1cc(Cl)ccc1OCCc1c(F)cccc1F)c1ccc(C(=O)O)cc1` [EXAMPLE 8, 4-[(1S)-1-({5-CHLORO-2-[2-(2,6-DIFLUOROPHENYL)ETHOXY]BENZOYL}AMINO)ETHYL]BENZOIC ACID] came in with an IC50 of 98 nM.

As for `C[C@H](NC(=O)c1cc(Cl)cnc1OCCc1ccc(F)cc1)c1ccc(C(=O)O)cc1` [EXAMPLE 9, 4-{(1S)-1-[({5-CHLORO-2-[2-(4-FLUOROPHENYL)ETHOXY]PYRIDIN-3-YL}CARBONYL)AMINO]ETHYL}BENZOIC ACID], the IC50 is 240 nM.

For the compound `C[C@H](NC(=O)c1cc(Cl)ccc1OCCc1ccccc1F)c1ccc(C(=O)O)cc1` [EXAMPLE 10, 4-[(1S)-1-({5-CHLORO-2-[2-(2-FLUOROPHENYL)ETHOXY]BENZOYL}AMINO)ETHYL]BENZOIC ACID], the IC50 was determined as 48 nM.

In turn, `Cc1ccccc1CCOc1ccc(Cl)cc1C(=O)N[C@@H](C)c1ccc(C(=O)O)cc1` [EXAMPLE 11, 4-[(1S)-1-({5-CHLORO-2-[2-(2-METHYLPHENYL)ETHOXY]BENZOYL}AMINO)ETHYL]BENZOIC ACID] showed an IC50 of 20 nM.

`Cc1ccc(CCOc2ccc(Cl)cc2C(=O)N[C@@H](C)c2ccc(C(=O)O)cc2)cc1` [EXAMPLE 12, 4-[(1S)-1-({5-CHLORO-2-[2-(4-METHYLPHENYL)ETHOXY]BENZOYL}AMINO)ETHYL]BENZOIC ACID]: the IC50 was 21 nM.

For `C[C@H](NC(=O)c1cc(Cl)ccc1OC1CCCCC1)c1ccc(C(=O)O)cc1` [EXAMPLE 13, 4-((1S)-1-{[5-CHLORO-2-(CYCLOHEXYLOXY)BENZOYL]AMINO}ETHYL)BENZOIC ACID], half-maximal inhibition (IC50) required 35 nM.

Take `CC(C)CCOc1ccc(Cl)cc1C(=O)N[C@@H](C)c1ccc(C(=O)O)cc1` [EXAMPLE 14, 4-((1S)-1-{[5-CHLORO-2-(3-METHYLBUTOXY)BENZOYL]AMINO}ETHYL)BENZOIC ACID]: the IC50 was 41 nM.

`C[C@H](NC(=O)c1cc(Cl)cnc1OCCc1ccc(Cl)cc1)c1ccc(C(=O)O)cc1` [EXAMPLE 15, 4-{(1S)-1-[({5-CHLORO-2-[2-(4-CHLOROPHENYL)ETHOXY]PYRIDIN-3-YL}CARBONYL)AMINO]ETHYL}BENZOIC ACID]: the IC50 is 78 nM.

`C[C@H](NC(=O)c1cc(Cl)cnc1N(C)CCc1ccccc1)c1ccc(C(=O)O)cc1` [EXAMPLE 16, 4-{(1S)-1-[({5-CHLORO-2-[METHYL(2-PHENYLETHYL)AMINO]PYRIDIN-3-YL}CARBONYL)AMINO]ETHYL}BENZOIC ACID] showed an IC50 of 350 nM.

`C[C@H](NC(=O)c1cc(Cl)ccc1O[C@H]1CC[C@@H](C)CC1)c1ccc(C(=O)O)cc1` [EXAMPLE 17, 4-[(1S)-1-({5-CHLORO-2-[(C/S4-METHYLCYCLOHEXYL)OXY]BENZOYL}AMINO)ETHYL]BENZOIC ACID] came in with an IC50 of 510 nM.

In turn, `C[C@H](NC(=O)c1cc(Cl)ccc1O[C@H]1CC[C@H](C)CC1)c1ccc(C(=O)O)cc1` [EXAMPLE 18, 4-[(1S)-1-({5-CHLORO-2-[(TRANS-4-METHYLCYCLOHEXYL)OXY]BENZOYL}AMINO)ETHYL]BENZOIC ACID] had a half-inhibitory concentration (IC50) of 260 nM.

As for `Cc1ccccc1CCOc1ncc(Cl)cc1C(=O)N[C@@H](C)c1ccc(C(=O)O)cc1` [EXAMPLE 19, 4-{(1S)-1-[({5-CHLORO-2-[2-(2-METHYLPHENYL)ETHOXY]PYRIDIN-3-YL}CARBONYL)AMINO]ETHYL}BENZOIC ACID], the 50% inhibitory concentration (IC50) was determined as 130 nM.

With `COC(C)(C)CCOc1ccc(Cl)cc1C(=O)N[C@@H](C)c1ccc(C(=O)O)cc1` [EXAMPLE 20, 4-((1S)-1-{[5-CHLORO-2-(3-METHOXY-3-METHYLBUTOXY)BENZOYL]AMINO}ETHYL)BENZOIC ACID], the IC50 amounted to 510 nM.

`CC(C)OCCOc1ccc(Cl)cc1C(=O)N[C@@H](C)c1ccc(C(=O)O)cc1` [EXAMPLE 21, 4-((1S)-1-{[5-CHLORO-2-(2-ISOPROPOXYETHOXY)BENZOYL]AMINO}ETHYL)BENZOIC ACID]: it took 200 nM to reach half-maximal inhibition (IC50).

Compound `C[C@H](NC(=O)c1cc(Cl)ccc1OCc1ccccc1Cl)c1ccc(C(=O)O)cc1` [EXAMPLE 22, 4-[(1S)-1-({5-CHLORO-2-[(2-CHLOROBENZYL)OXY]BENZOYL}AMINO)ETHYL]BENZOIC ACID] registered an IC50 of 13 nM.

As for `C[C@H](NC(=O)c1cc(Cl)ccc1OCc1cccc(Cl)c1)c1ccc(C(=O)O)cc1` [EXAMPLE 23, 4-[(1S)-1-({5-CHLORO-2-[(3-CHLOROBENZYL)OXY]BENZOYL}AMINO)ETHYL]BENZOIC ACID], the IC50 is 22 nM.

Regarding `C[C@H](NC(=O)c1cc(Cl)ccc1OCc1ccc(Cl)cc1)c1ccc(C(=O)O)cc1` [EXAMPLE 24, 4-[(1S)-1-({5-CHLORO-2-[(4-CHLOROBENZYL)OXY]BENZOYL}AMINO)ETHYL]BENZOIC ACID], the IC50 is 29 nM.

As to `C[C@H](NC(=O)c1cc(Cl)ccc1OCc1ccc(F)cc1)c1ccc(C(=O)O)cc1` [EXAMPLE 25, 4-[(1S)-1-({5-CHLORO-2-[(4-FLUOROBENZYL)OXY]BENZOYL}AMINO)ETHYL]BENZOIC ACID], half-maximal inhibition (IC50) required 46 nM.

Regarding `C[C@H](NC(=O)c1cc(Cl)ccc1OCCOc1ccccc1)c1ccc(C(=O)O)cc1` [EXAMPLE 26, 4-((1S)-1-{[5-CHLORO-2-(2-PHENOXYETHOXY)BENZOYL]AMINO}ETHYL)BENZOIC ACID], the IC50 is 62 nM.

For the compound `COC(COc1ccc(Cl)cc1C(=O)N[C@@H](C)c1ccc(C(=O)O)cc1)c1ccccc1` (stereo partly drawn) [EXAMPLE 27, 4-((1S)-1-{[5-CHLORO-2-(2-METHOXY-2-PHENYLETHOXY)BENZOYL]AMINO}ETHYL)BENZOIC ACID], half-maximal inhibition (IC50) was put at 140 nM.

In turn, `C[C@H](NC(=O)c1cc(Cl)ccc1OCCOc1ccc(F)cc1)c1ccc(C(=O)O)cc1` [EXAMPLE 28, 4-[(1S)-1-({5-CHLORO-2-[2-(4-FLUOROPHENOXY)ETHOXY]BENZOYL}AMINO)ETHYL]BENZOIC ACID] registered an IC50 of 210 nM.

`C[C@H](NC(=O)c1cc(Cl)ccc1OCC1CCC1)c1ccc(C(=O)O)cc1` [EXAMPLE 29, 4-((1S)-1-{[5-CHLORO-2-(CYCLOBUTYLMETHOXY)BENZOYL]AMINO}ETHYL)BENZOIC ACID] had a 50% inhibitory concentration (IC50) of 30 nM.

`CC(C)COc1ccc(Cl)cc1C(=O)N[C@@H](C)c1ccc(C(=O)O)cc1` [EXAMPLE 30, 4-{(1S)-1-[(5-CHLORO-2-ISOBUTOXYBENZOYL)AMINO}ETHYL]BENZOIC ACID] displayed a half-maximal inhibitory concentration (IC50) of 140 nM.

For the compound `CC(C)CCOc1ncc(Cl)cc1C(=O)N[C@@H](C)c1ccc(C(=O)O)cc1` [EXAMPLE 31, 4-[(1S)-1-({[5-CHLORO-2-(3-METHYLBUTOXY)PYRIDIN-3-YL]CARBONYL}AMINO)ETHYL]BENZOIC ACID], the IC50 was 140 nM.

The compound `C[C@H](NC(=O)c1cc(Cl)ccc1OCc1cc(F)ccc1F)c1ccc(C(=O)O)cc1` [EXAMPLE 32, 4-[(1S)-1-({5-CHLORO-2-[(2,5-DIFLUOROBENZYL)OXY]BENZOYL}AMINO)ETHYL]BENZOIC ACID] registered a half-maximal inhibitory concentration (IC50) of 50 nM.

Compound `C[C@H](NC(=O)c1cc(Cl)ccc1OCc1ccc(F)c(F)c1)c1ccc(C(=O)O)cc1` [EXAMPLE 33, 4-[(1S)-1-({5-CHLORO-2-[(3,4-DIFLUOROBENZYL)OXY]BENZOYL}AMINO)ETHYL]BENZOIC ACID] showed an IC50 of 63 nM.

Take `C[C@H](NC(=O)c1cc(Cl)ccc1OCCc1ccc(F)cc1)c1ccc(C(=O)O)cc1` [EXAMPLE 34, 4-[(1S)-1-({5-CHLORO-2-[2-(4-FLUOROPHENYL)ETHOXY]BENZOYL}AMINO)ETHYL]BENZOIC ACID]: 41 nM corresponded to half-maximal inhibition (IC50).

Take `C[C@H](NC(=O)c1cc(Cl)ccc1OCc1ccc(F)cc1F)c1ccc(C(=O)O)cc1` [EXAMPLE 35, 4-[(1S)-1-({5-CHLORO-2-[(2,4-DIFLUOROBENZYL)OXY]BENZOYL}AMINO)ETHYL]BENZOIC ACID]: the IC50 came to 110 nM.

In turn, `C[C@H](NC(=O)c1cc(Cl)ccc1OCc1ccccc1F)c1ccc(C(=O)O)cc1` [EXAMPLE 36, 4-[(1S)-1-({5-CHLORO-2-[(2-FLUOROBENZYL)OXY]BENZOYL}AMINO)ETHYL]BENZOIC ACID] had an IC50 of 170 nM.

The values above are taken from patent US20050250818A1, “Ortho substituted aryl or heteroaryl amide compounds” (Pfizer Inc, priority 2004, published 2005).
